# ChEMBL document CHEMBL1150213, “Protein-tyrosine kinase inhibition: mechanism-based discovery of antitumor agents” (J Nat Prod, 1992)
# Molecular target: T1, Epidermal growth factor receptor (Homo sapiens, UniProt P00533)
# T1 sequence (P00533 whole entry): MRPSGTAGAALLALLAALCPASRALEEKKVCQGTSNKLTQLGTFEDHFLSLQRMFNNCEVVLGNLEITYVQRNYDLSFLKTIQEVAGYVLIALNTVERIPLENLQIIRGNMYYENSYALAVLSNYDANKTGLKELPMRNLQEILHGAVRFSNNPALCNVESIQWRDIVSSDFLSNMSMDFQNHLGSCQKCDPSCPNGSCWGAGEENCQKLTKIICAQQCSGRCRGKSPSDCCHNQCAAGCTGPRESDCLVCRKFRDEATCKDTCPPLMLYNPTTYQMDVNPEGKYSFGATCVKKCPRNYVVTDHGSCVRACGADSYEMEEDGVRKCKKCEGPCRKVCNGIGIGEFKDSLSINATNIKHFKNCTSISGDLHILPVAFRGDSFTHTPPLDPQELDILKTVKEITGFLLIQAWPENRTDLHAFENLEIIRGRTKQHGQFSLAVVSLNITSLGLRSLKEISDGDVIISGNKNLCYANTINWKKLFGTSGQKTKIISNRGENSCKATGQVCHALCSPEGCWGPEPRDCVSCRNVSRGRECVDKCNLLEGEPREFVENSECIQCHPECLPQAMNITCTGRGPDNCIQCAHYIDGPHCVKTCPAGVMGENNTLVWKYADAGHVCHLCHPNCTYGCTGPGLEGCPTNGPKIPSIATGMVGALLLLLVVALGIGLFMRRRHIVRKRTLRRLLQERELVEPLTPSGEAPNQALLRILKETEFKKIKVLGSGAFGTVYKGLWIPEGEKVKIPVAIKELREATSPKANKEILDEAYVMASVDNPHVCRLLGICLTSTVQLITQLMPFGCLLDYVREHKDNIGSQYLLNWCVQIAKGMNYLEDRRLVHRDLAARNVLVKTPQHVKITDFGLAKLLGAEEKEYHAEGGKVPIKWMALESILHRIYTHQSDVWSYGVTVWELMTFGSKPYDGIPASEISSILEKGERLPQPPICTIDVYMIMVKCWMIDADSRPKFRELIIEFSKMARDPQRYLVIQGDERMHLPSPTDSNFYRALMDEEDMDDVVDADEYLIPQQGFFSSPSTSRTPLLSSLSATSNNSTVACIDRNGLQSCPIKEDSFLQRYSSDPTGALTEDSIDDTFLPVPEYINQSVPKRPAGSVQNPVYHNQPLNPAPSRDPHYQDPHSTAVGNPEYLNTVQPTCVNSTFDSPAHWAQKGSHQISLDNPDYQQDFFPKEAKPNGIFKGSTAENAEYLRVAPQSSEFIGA
SMILES,IC50,Ki
NC(=O)c1oc2cc(O)cc(O)c2c(=O)c1-c1ccc(O)cc1,31.9 µM,–
O=CN/C=C/c1cc(Br)ccc1O,> 24.8 µM,–
CC(C)OC(=O)c1oc2cc(O)cc(O)c2c(=O)c1-c1ccc(O)cc1,28.1 µM,–
O=c1c(-c2ccc(O)cc2)c(CN2CCCCC2)oc2cc(O)cc(O)c12,27.2 µM,–
O=C(O)c1oc2cc(O)cc(O)c2c(=O)c1-c1ccc(O)cc1,6.36 µM,–
COc1ccc(O)c(/C=C/NC=O)c1,> 31.1 µM,–
O=c1c(-c2ccc(O)cc2)c(CSC2=NCCS2)oc2cc(O)cc(O)c12,12.5 µM,–
O=C(O)/C=C/c1cc(O)ccc1O,44.4 µM,–
CCOc1cc(/C=C(\C#N)C(N)=O)cc(CSc2ccc(O)cc2)c1O,3 µM,–
COc1cc(/C=C(\C#N)C(N)=O)cc(CSc2ccccc2)c1O,0.5 µM,–
CC(C)(C)c1cc(/C=C(\C#N)C(N)=O)cc(C(C)(C)C)c1O,50 µM,–
N#C/C(=C/c1cc(Cc2ccccc2)c(O)c(Cc2ccccc2)c1)C(N)=O,0.6 µM,–
CSCc1oc2cc(O)cc(O)c2c(=O)c1-c1ccc(O)cc1,15.1 µM,–
CCOC(=O)c1oc2cc(O)cc(O)c2c(=O)c1-c1ccc(O)cc1,5.84 µM,–
CCOC(=O)CSCc1oc2cc(O)cc(O)c2c(=O)c1-c1ccc(O)cc1,9.94 µM,–
CC(=O)N/C=C/c1cc(O)ccc1O,15.5 µM,–
O=CN/C=C/c1ccc(O)c(O)c1O,4.61 µM,–
O=c1c(-c2ccc(O)cc2)c(CNC2=NCCS2)oc2cc(O)cc(O)c12,52 µM,–
CC(C)c1cc(/C=C(\C#N)C(N)=O)cc(C(C)C)c1O,1 µM,–
COC(=O)c1oc2cc(O)cc(O)c2c(=O)c1-c1ccc(O)cc1,6.09 µM,–
CC(C)c1cc(/C=C2\C(=O)Nc3ccccc32)cc(C(C)C)c1O,0.4 µM,–
N#C/C(=C\c1cc(CSc2ccccc2)c(O)c(OCc2ccccc2)c1)C(N)=O,0.8 µM,–
N#CC(C#N)=C1C(=O)Nc2ccc(O)cc21,10 µM,–
CCOC(=O)C(=O)Oc1ccc(-c2c(C(=O)OCC)oc3cc(O)cc(O)c3c2=O)cc1,1 µM,–
CC(C)C[C@H](NC(=O)[C@H](CCCNC(=N)N)NC(=O)[C@@H](N)CCCNC(=N)N)C(=O)N[C@@H](CCC(=O)O)C(=O)N[C@@H](CCC(=O)O)C(=O)N[C@@H](CCC(=O)O)C(=O)N[C@@H](CCC(=O)O)C(=O)N[C@@H](CCC(=O)O)C(=O)N[C@@H](C)C(=O)N[C@@H](Cc1c(F)c(F)c(O)c(F)c1F)C(=O)NCC(=O)O (stereo in doubt; 187D),–,20 µM
O=CN/C=C/c1ccc(O)c(O)c1,5.58 µM,–

# Now from value to compound:
IC50,Ki,SMILES
> 61.3 µM,–,O=CN/C=C/c1cccc(O)c1
0.9 µM,–,CCOc1cc(/C=C2/CCNC2=O)cc(CSc2ccccc2)c1O
> 167 µM,–,O=CN/C=C/c1ccc(O)cc1O
103 µM,–,COC(=O)/C=C/c1cc(O)ccc1O
1.67 µM,–,O=CN/C=C/c1cccc(O)c1O
–,4 µM,CC(C)C[C@H](NC(=O)[C@H](CCCNC(=N)N)NC(=O)[C@@H](N)CCCNC(=N)N)C(=O)N[C@@H](CCC(=O)O)C(=O)N[C@@H](CCC(=O)O)C(=O)N[C@@H](CCC(=O)O)C(=O)N[C@@H](CCC(=O)O)C(=O)N[C@@H](CCC(=O)O)C(=O)N[C@@H](C)C(=O)N[C@@H](Cc1c(F)c(F)c(O)c(F)c1F)C(=O)NCC(=O)O (stereo in doubt; 187L)
7.04 µM,–,Cc1oc2cc(O)cc(O)c2c(=O)c1-c1ccc(O)cc1
0.4 µM,–,CSCc1cc(/C=C2\C(=O)Nc3ccccc32)cc(CSC)c1O
0.4 µM,–,CCOc1cc(/C=C(\C#N)C(N)=O)cc(CSc2ccccc2)c1O
20 µM,–,CCOc1cc(/C=C(\C#N)C(N)=O)cc(CSc2ccc(C)cc2)c1O
> 61.3 µM,–,O=CN/C=C/c1ccc(O)cc1
0.4 µM,–,N#C/C(=C\c1cc(-c2ccccc2)c(O)c(-c2ccccc2)c1)C(N)=O
3 µM,–,N#CC(C#N)=C1C(=O)Nc2cc(O)c(O)cc21
> 613 µM,–,O=CN/C=C/c1ccccc1O

# Molecular target: Tyrosine-protein kinase Lck (Homo sapiens, UniProt P06239)
# Sequence (P06239 whole entry): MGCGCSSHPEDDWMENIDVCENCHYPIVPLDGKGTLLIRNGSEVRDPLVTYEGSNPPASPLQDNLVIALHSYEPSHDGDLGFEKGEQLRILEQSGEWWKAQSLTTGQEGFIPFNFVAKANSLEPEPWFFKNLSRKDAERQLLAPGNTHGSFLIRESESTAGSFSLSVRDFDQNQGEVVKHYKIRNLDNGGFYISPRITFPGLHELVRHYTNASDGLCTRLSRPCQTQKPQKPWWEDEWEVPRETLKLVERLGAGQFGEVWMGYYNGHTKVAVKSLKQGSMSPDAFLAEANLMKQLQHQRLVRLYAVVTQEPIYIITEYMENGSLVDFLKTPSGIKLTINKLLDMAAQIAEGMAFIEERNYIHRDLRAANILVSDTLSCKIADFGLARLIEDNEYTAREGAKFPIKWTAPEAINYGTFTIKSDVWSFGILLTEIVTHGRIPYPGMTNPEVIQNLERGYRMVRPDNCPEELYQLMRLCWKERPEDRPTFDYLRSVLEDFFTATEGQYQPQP
row,SMILES,IC50
1,CC(=O)Oc1ccc2c(c1)C(=O)c1ccccc1C2=O,> 3000 µM
2,COc1cc(-c2cc(=O)c3ccc(O)cc3o2)cc(OC)c1OC,> 2440 µM
3,Nc1ccc(-c2cc(=O)c3ccc(O)cc3o2)cc1,100 µM
4,O=c1cc(-c2ccc(O)cc2)oc2cc(O)cc(O)c12 [APIGENIN],14.8 µM
5,COc1cc(O)c2c(=O)cc(-c3ccc(O)cc3)oc2c1 [GENKWANIN],281 µM
6,O=c1cc(-c2ccc(O)cc2)oc2cccc(O)c12,15.7 µM
7,O=c1c(O)c(-c2ccc(O)c(O)c2)oc2cc(O)cc(O)c12 [QUERCETIN],132 µM
8,O=c1cc(-c2ccc(O)cc2)oc2cc(O)ccc12,787 µM
9,COc1ccc(/C=N/Nc2ccccc2)cc1OC,70 µM
10,"O=c1cc(-c2ccccc2)oc2c(O)c(O)ccc12 [7,8-DIHYDROXYFLAVONE]",315 µM
11,COc1cc(-c2cc(=O)c3cc(O)ccc3o2)cc(OC)c1OC,60.9 µM
12,O=c1cc(-c2cccc(O)c2)oc2c(O)c(O)ccc12,185 µM
13,COc1cc(-c2cc(=O)c3ccc(OC(C)=O)cc3o2)cc(OC)c1O[Si](C)(C)C(C)(C)C,> 1700 µM
14,COc1ccc2c(=O)cc(-c3cc(OC)c(OC)c(OC)c3)oc2c1,> 2340 µM
15,COc1ccc(/C=C/c2cccnc2)cc1OC,200 µM
16,COc1cc(-c2oc3cc(O)cc(O)c3c(=O)c2O)cc(OC)c1O [SYRINGETIN],57.8 µM
17,O=c1c(O)c(-c2ccccc2)oc2cc(O)cc(O)c12 [GALANGIN],296 µM
18,O=c1c(O)c(-c2cc(O)cc(O)c2)oc2cc(O)cc(O)c12,99.3 µM
19,O=c1cc(-c2ccc(O)c(O)c2)oc2cc(O)cc(O)c12 [LUTEOLIN],34.9 µM
20,CC(C)(C)[Si](C)(C)Oc1ccc(-c2cc(=O)c3ccc(O)cc3o2)cc1,109 µM

# More lines, now with the values ahead:
row,IC50,SMILES
1,26.8 µM,COc1cc(-c2cc(=O)c3ccccc3o2)cc(OC)c1O
2,1270 µM,COc1cc(-c2cc(=O)c3ccc(O)cc3o2)cc(OC)c1O
3,336 µM,O=c1cc(-c2ccccc2)oc2cc(O)ccc12 [7-HYDROXYFLAVONE]
4,109 µM,CC(C)(C)[Si](C)(C)Oc1ccc(-c2cc(=O)c3cc(O)ccc3o2)cc1
5,> 2150 µM,COc1cc(-c2cc(=O)c3ccc(OC)c(OC)c3o2)cc(OC)c1OC
6,467 µM,COc1cc(-c2cc(=O)c3cc(O)ccc3o2)cc(OC)c1O[Si](C)(C)C(C)(C)C
7,1 µM,Nc1ccc(-c2cc(=O)c3cc(O)ccc3o2)cc1
8,157 µM,O=c1cc(-c2cccc(O)c2)oc2ccc(O)cc12
9,> 1510 µM,COc1cc(-c2cc(=O)c3ccc(OC(C)=O)c(OC(C)=O)c3o2)cc(OC)c1O[Si](C)(C)C(C)(C)C
10,315 µM,O=c1cc(-c2cccc(O)c2)oc2cccc(O)c12
11,127 µM,COc1cc(-c2cc(=O)c3cc(O)ccc3o2)cc(OC)c1O
12,39.3 µM,O=c1cc(-c2cccc(O)c2)oc2cc(O)ccc12
13,> 1800 µM,COc1cc(-c2cc(=O)c3ccc(O)c(O)c3o2)cc(OC)c1O[Si](C)(C)C(C)(C)C
14,> 1850 µM,Cc1cc(O)c2c(c1)C(=O)c1cc(O[C@@H]3O[C@H](CO)[C@@H](O)[C@H](O)[C@H]3O)cc(O)c1C2=O
15,> 2340 µM,COc1ccc2oc(-c3cc(OC)c(OC)c(OC)c3)cc(=O)c2c1
16,> 2810 µM,COc1cc(O)c2c(c1)C(=O)c1cc(C)cc(O)c1C2=O [PHYSCION]
17,290 µM,COc1cc(-c2cc(=O)c3ccc(O)c(O)c3o2)cc(OC)c1OC
18,2030 µM,O=c1cc(-c2ccc(OCc3ccccc3)cc2)oc2cc(O)ccc12
19,11.8 µM,O=c1cc(-c2ccc(O)cc2)oc2ccc(O)cc12
20,89.2 µM,O=C1c2ccccc2C(=O)c2cc(O)ccc21 [2-HYDROXYANTHRAQUINONE]
21,> 2320 µM,O=c1cc(-c2ccc(OCc3ccccc3)cc2)oc2cccc(O)c12
22,121 µM,COc1cc(-c2cc(=O)c3ccc(O)c(O)c3o2)cc(OC)c1O

# Molecular target: T2, Tyrosine-protein kinase transforming protein Abl (Abelson murine leukemia virus, UniProt P00521)
# T2 sequence (P00521 whole entry): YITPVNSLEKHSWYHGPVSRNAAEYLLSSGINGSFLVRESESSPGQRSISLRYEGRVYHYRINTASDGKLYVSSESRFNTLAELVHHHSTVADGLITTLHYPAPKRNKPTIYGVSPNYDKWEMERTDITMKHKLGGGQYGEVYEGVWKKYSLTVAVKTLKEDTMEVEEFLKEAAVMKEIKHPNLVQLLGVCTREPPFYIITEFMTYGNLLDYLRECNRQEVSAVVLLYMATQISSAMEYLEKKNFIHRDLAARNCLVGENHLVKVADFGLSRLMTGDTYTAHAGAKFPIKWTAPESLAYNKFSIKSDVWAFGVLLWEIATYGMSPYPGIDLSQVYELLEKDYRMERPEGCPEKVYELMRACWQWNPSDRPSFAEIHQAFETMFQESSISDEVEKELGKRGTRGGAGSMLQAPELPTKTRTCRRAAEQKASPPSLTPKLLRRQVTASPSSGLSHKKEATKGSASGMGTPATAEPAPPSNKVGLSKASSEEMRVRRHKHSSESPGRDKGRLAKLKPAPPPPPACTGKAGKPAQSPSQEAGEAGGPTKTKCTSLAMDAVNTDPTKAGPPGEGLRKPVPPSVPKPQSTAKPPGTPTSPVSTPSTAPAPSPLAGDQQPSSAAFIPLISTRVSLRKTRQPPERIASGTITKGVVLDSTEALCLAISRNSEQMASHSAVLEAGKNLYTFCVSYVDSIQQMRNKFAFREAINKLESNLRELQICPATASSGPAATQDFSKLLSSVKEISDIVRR
# Description: Inhibition of Abelson murine leukemia virus p60 v-abl
row,SMILES,IC50
1,Nc1ncnc2c1ncn2[C@@H]1O[C@H](COC(=O)c2ccc(S(=O)(=O)F)cc2)[C@@H](O)[C@H]1O,200 µM
2,O=C(O)c1ccc(S(=O)(=O)Oc2ccc(/C=C/[N+](=O)[O-])cc2)cc1,100 µM
3,C[C@H](NC(=O)[C@H](C)NC(=O)c1ccc(S(=O)(=O)Oc2ccc(/C=C/[N+](=O)[O-])cc2)cc1)C(=O)O,40 µM
4,COc1ccc(NP(=O)(O)OP(=O)(O)OP(=O)(O)OC[C@H]2O[C@@H](n3cnc4c(N)ncnc43)[C@H](O)[C@@H]2O)cc1,90 µM
5,Nc1ncnc2c1ncn2[C@@H]1O[C@H](COC(=O)c2ccc(S(=O)(=O)NCc3ccccc3)cc2)[C@@H](O)[C@H]1O,50 µM

# The next lines start with the values.
row,IC50,SMILES
1,100 µM,C[C@H](NC(=O)c1ccc(S(=O)(=O)Oc2ccc(/C=C/[N+](=O)[O-])cc2)cc1)C(=O)N[C@@H](C)C(=O)OC(C)(C)C
2,100 µM,CC(=O)NC(Cc1ccc(NP(=O)(O)OP(=O)(O)OP(=O)(O)OP(=O)(O)OC[C@H]2O[C@@H](n3cnc4c(N)ncnc43)[C@H](O)[C@@H]2O)cc1)C(N)=O (stereo partly specified)
3,200 µM,Nc1ncnc2c1ncn2[C@@H]1O[C@H](COC(=O)c2ccc(S(=O)(=O)Oc3ccccc3)cc2)[C@@H](O)[C@H]1O

# Molecular target: T1, Epidermal growth factor receptor
# Remark: another data set of the same source
# Description: Inhibition of EGFR in human A431 cells
row,SMILES,IC50
1,O=c1cc(-c2ccc(O)cc2)oc2cc(O)cc(O)c12 [APIGENIN],111 µM
